Results from PubChem BioAssay (NCI).
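Method: 48-hour compound exposure of cells in 96-well plates, five concentrations, linear interpolation of endpoints. At the GI50, growth is halved. TGI: total growth inhibition.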

Tests used:
Experiment in all cases: NCI-60 cell line screen, 48 h
MDA-N = tested on: MDA-N
CCRF-CEM leukemia = tested on: CCRF-CEM leukemia
SNB-19 CNS = tested on: SNB-19 CNS
HT29 colon = tested on: HT29 colon
SF-539 CNS = tested on: SF-539 CNS
DU-145 prostate = tested on: DU-145 prostate
OVCAR-3 ovarian = tested on: OVCAR-3 ovarian
HCT-15 colon = tested on: HCT-15 colon
PC-3 prostate = tested on: PC-3 prostate
SK-OV-3 ovarian = tested on: SK-OV-3 ovarian

Compound: C=CCn1c(=O)c(C(=O)Nc2nc(C34CC5CC(CC(C5)C3)C4)cs2)c(O)c2ccccc21
- TGI (MDA-N): > 100 µM
- TGI (CCRF-CEM leukemia): > 100 µM
- TGI (SNB-19 CNS): > 100 µM
- TGI (HT29 colon): > 100 µM
- TGI (SF-539 CNS): > 100 µM
- TGI (DU-145 prostate): > 100 µM
- TGI (OVCAR-3 ovarian): > 100 µM
- TGI (HCT-15 colon): > 100 µM
- TGI (PC-3 prostate): > 100 µM

Compound: O=C(/C=C/c1ccccc1)Oc1ccc(C(=O)/C=C/c2ccccc2)cc1
- TGI (MDA-N): 12.6 µM
- TGI (CCRF-CEM leukemia): 10.9 µM
- TGI (SNB-19 CNS): 38.5 µM
- TGI (HT29 colon): 17.7 µM
- TGI (SF-539 CNS): 22.3 µM
- TGI (DU-145 prostate): 14.9 µM
- TGI (SK-OV-3 ovarian): > 31.6 µM
- TGI (OVCAR-3 ovarian): 16 µM
- TGI (HCT-15 colon): 17.3 µM
- TGI (PC-3 prostate): > 64.9 µM

Compound: Cc1ccc(C2=CC(=O)OC(C[P+](c3ccccc3)(c3ccccc3)c3ccccc3)(c3ccccc3)O2)cc1 (stereo not given)
- TGI (MDA-N): 29.2 µM
- TGI (CCRF-CEM leukemia): 99.4 µM
- TGI (SNB-19 CNS): 30.9 µM
- TGI (HT29 colon): 29.1 µM
- TGI (SF-539 CNS): 33.8 µM
- TGI (DU-145 prostate): 30.3 µM
- TGI (SK-OV-3 ovarian): 32.4 µM
- TGI (OVCAR-3 ovarian): 30.7 µM
- TGI (HCT-15 colon): 42.8 µM
- TGI (PC-3 prostate): 49 µM

Compound: Cc1nn(-c2ccccc2)c2c1C(c1cc3ccccc3nc1Cl)NC(=O)N2 (stereo not given)
- TGI (MDA-N): 37.2 µM
- TGI (CCRF-CEM leukemia): 71.6 µM
- TGI (SNB-19 CNS): 48.1 µM
- TGI (HT29 colon): 35.4 µM
- TGI (SF-539 CNS): 45.9 µM
- TGI (DU-145 prostate): > 100 µM
- TGI (SK-OV-3 ovarian): 49.1 µM
- TGI (OVCAR-3 ovarian): > 100 µM
- TGI (HCT-15 colon): 48.1 µM
- TGI (PC-3 prostate): 43.7 µM

Compound: N#CC(C#N)=C1SC(=Nc2ccccc2)C(=Nc2ccccc2)N1c1ccccc1
- TGI (MDA-N): 37.8 µM
- TGI (CCRF-CEM leukemia): 6.35 µM
- TGI (SNB-19 CNS): > 100 µM
- TGI (HT29 colon): > 69.9 µM
- TGI (SF-539 CNS): 22.5 µM
- TGI (DU-145 prostate): > 100 µM
- TGI (SK-OV-3 ovarian): > 100 µM
- TGI (OVCAR-3 ovarian): 6.04 µM
- TGI (HCT-15 colon): 6.3 µM
- TGI (PC-3 prostate): 25.1 µM

Compound: Cc1nc(C)c(N2CCN([N+](=O)[O-])CC2)c(=O)[nH]1
- TGI (MDA-N): > 100 µM
- TGI (CCRF-CEM leukemia): > 100 µM
- TGI (SNB-19 CNS): > 100 µM
- TGI (HT29 colon): > 100 µM
- TGI (SF-539 CNS): > 100 µM
- TGI (DU-145 prostate): > 100 µM
- TGI (SK-OV-3 ovarian): > 100 µM
- TGI (OVCAR-3 ovarian): > 100 µM
- TGI (HCT-15 colon): > 100 µM
- TGI (PC-3 prostate): > 100 µM

Compound: Cn1c(SCc2ccc(F)cc2)nnc1C12CC3CC(CC(C3)C1)C2
- TGI (MDA-N): > 100 µM
- TGI (CCRF-CEM leukemia): 43.3 µM
- TGI (SNB-19 CNS): > 100 µM
- TGI (HT29 colon): 39.2 µM
- TGI (SF-539 CNS): 65.1 µM
- TGI (DU-145 prostate): > 100 µM
- TGI (SK-OV-3 ovarian): > 100 µM
- TGI (OVCAR-3 ovarian): 85.5 µM
- TGI (HCT-15 colon): > 100 µM
- TGI (PC-3 prostate): > 100 µM

Compound: NC(=O)c1c(NC(=O)c2ccccc2)sc2c1CCC(=O)C2
- GI50 (CCRF-CEM leukemia): 0.37 µM
- TGI (CCRF-CEM leukemia): > 100 µM
- GI50 (SNB-19 CNS): 3.29 µM
- TGI (SNB-19 CNS): > 100 µM
- GI50 (HT29 colon): 2.33 µM
- TGI (HT29 colon): > 100 µM
- GI50 (SF-539 CNS): 0.75 µM
- TGI (SF-539 CNS): 3.27 µM
- GI50 (DU-145 prostate): 4.14 µM
- TGI (DU-145 prostate): > 100 µM
- GI50 (SK-OV-3 ovarian): 2.91 µM
- TGI (SK-OV-3 ovarian): > 100 µM
- GI50 (OVCAR-3 ovarian): 1.02 µM
- TGI (OVCAR-3 ovarian): 2.72 µM
- GI50 (HCT-15 colon): 0.375 µM
- TGI (HCT-15 colon): 1.93 µM
- GI50 (PC-3 prostate): 0.319 µM
- TGI (PC-3 prostate): 17.6 µM

Compound: O=C(CCn1ccnc1[N+](=O)[O-])NCCCn1ccnc1[N+](=O)[O-]
- TGI (MDA-N): > 100 µM
- TGI (CCRF-CEM leukemia): > 100 µM
- TGI (HT29 colon): > 100 µM
- TGI (SF-539 CNS): > 100 µM
- TGI (DU-145 prostate): > 100 µM
- TGI (SK-OV-3 ovarian): > 100 µM
- TGI (OVCAR-3 ovarian): > 100 µM
- TGI (HCT-15 colon): > 100 µM
- TGI (PC-3 prostate): > 100 µM

Compound: C[N+](C)([O-])CCOc1cc2c(c3ccccc13)-c1ccccc1C2=O
- TGI (CCRF-CEM leukemia): > 83.7 µM
- TGI (SNB-19 CNS): > 55.1 µM
- TGI (HT29 colon): > 35.6 µM
- TGI (SF-539 CNS): 38.4 µM
- TGI (SK-OV-3 ovarian): > 100 µM
- TGI (OVCAR-3 ovarian): > 52.6 µM
- TGI (HCT-15 colon): > 100 µM

Compound: CCCCCC#CCOC(=O)C(=[N+]=[N-])P(=O)(c1ccccc1)c1ccccc1
- TGI (MDA-N): > 10 µM
- TGI (SNB-19 CNS): > 10 µM
- TGI (HT29 colon): > 10 µM
- TGI (SF-539 CNS): > 10 µM
- TGI (DU-145 prostate): > 10 µM
- TGI (SK-OV-3 ovarian): > 10 µM
- TGI (OVCAR-3 ovarian): > 10 µM
- TGI (HCT-15 colon): > 10 µM
- TGI (PC-3 prostate): > 10 µM

Compound: O=C1OCC/C1=N/O
- TGI (CCRF-CEM leukemia): > 100 µM
- TGI (HT29 colon): > 100 µM
- TGI (SF-539 CNS): > 100 µM
- TGI (SK-OV-3 ovarian): > 100 µM
- TGI (OVCAR-3 ovarian): > 100 µM
- TGI (HCT-15 colon): > 100 µM

Compound: COc1cc(O)c2c(c1)C(=O)c1cc3c(c(O)c1C2=O)C(OC1OC(C)C(OC)C(O)C1OC)C(OC)C(C)(O)C3=O (stereo not given)
- TGI (CCRF-CEM leukemia): 41.6 µM
- TGI (SNB-19 CNS): 23.3 µM
- TGI (HT29 colon): 11.8 µM
- TGI (SF-539 CNS): 17.8 µM
- TGI (SK-OV-3 ovarian): 97 µM
- TGI (OVCAR-3 ovarian): 22.6 µM
- TGI (HCT-15 colon): 15.8 µM
- TGI (PC-3 prostate): 14.1 µM

Compound: C[C@H](CCC(=O)O)[C@H]1CC[C@H]2[C@@H]3C(=O)C[C@@H]4C[C@H](O)CC[C@]4(C)[C@H]3C[C@H](O)[C@]12C
- TGI (MDA-N): > 100 µM
- TGI (CCRF-CEM leukemia): > 100 µM
- TGI (SNB-19 CNS): > 100 µM
- TGI (HT29 colon): > 100 µM
- TGI (SF-539 CNS): > 100 µM
- TGI (DU-145 prostate): > 100 µM
- TGI (HCT-15 colon): > 100 µM
- TGI (PC-3 prostate): > 100 µM

Compound: COc1ccc(C2c3cn[nH]c3CC3CCCCC32)cc1 (stereo not given)
- TGI (MDA-N): 27.9 µM
- TGI (CCRF-CEM leukemia): 53.9 µM
- TGI (SNB-19 CNS): 43.5 µM
- TGI (HT29 colon): 41.4 µM
- TGI (DU-145 prostate): 26.3 µM
- TGI (OVCAR-3 ovarian): 28.9 µM
- TGI (HCT-15 colon): 31.7 µM
- TGI (PC-3 prostate): 29.8 µM

Compound: Cc1c(O)nc(-n2[nH]c3c(c2=O)CCCC3)[nH]c1=O
- TGI (MDA-N): > 100 µM
- TGI (CCRF-CEM leukemia): > 100 µM
- TGI (SNB-19 CNS): > 100 µM
- TGI (HT29 colon): > 100 µM
- TGI (DU-145 prostate): > 100 µM
- TGI (SK-OV-3 ovarian): > 100 µM
- TGI (HCT-15 colon): > 100 µM
- TGI (PC-3 prostate): > 100 µM

Compound: CCCNc1ncnc2c1ncn2C
- TGI (MDA-N): > 100 µM
- TGI (CCRF-CEM leukemia): > 100 µM
- TGI (SNB-19 CNS): > 100 µM
- TGI (SF-539 CNS): > 100 µM
- TGI (DU-145 prostate): > 100 µM
- TGI (SK-OV-3 ovarian): > 100 µM
- TGI (OVCAR-3 ovarian): > 100 µM
- TGI (HCT-15 colon): > 100 µM
- TGI (PC-3 prostate): > 100 µM

Compound: CCOc1cc(/C=C2/C(C)=NN(c3cccc(Cl)c3)/C2=N/c2nc3ccccc3s2)ccc1O
- TGI (CCRF-CEM leukemia): > 100 µM
- TGI (HT29 colon): > 100 µM
- TGI (SF-539 CNS): 57 µM
- TGI (DU-145 prostate): > 100 µM
- TGI (SK-OV-3 ovarian): 70.5 µM
- TGI (OVCAR-3 ovarian): 50.8 µM
- TGI (HCT-15 colon): 69.8 µM
- TGI (PC-3 prostate): 43.5 µM

Compound: O=P(O)(O)C(N=C(Nc1ccccc1)Nc1ccccc1)P(=O)(O)O
- TGI (MDA-N): > 100 µM
- TGI (SNB-19 CNS): > 100 µM
- TGI (HT29 colon): > 100 µM
- TGI (SF-539 CNS): > 100 µM
- TGI (DU-145 prostate): > 100 µM
- TGI (SK-OV-3 ovarian): > 100 µM
- TGI (OVCAR-3 ovarian): > 100 µM
- TGI (HCT-15 colon): > 100 µM
- TGI (PC-3 prostate): > 100 µM

Compound: C[n+]1c(/C=C/c2c(O)ccc3ccccc23)ccc2ccccc21
- GI50 (CCRF-CEM leukemia): 2.38 µM
- TGI (CCRF-CEM leukemia): 17.3 µM
- GI50 (SNB-19 CNS): 6.56 µM
- TGI (SNB-19 CNS): 14.8 µM
- GI50 (HT29 colon): 2.04 µM
- TGI (HT29 colon): 7.63 µM
- GI50 (SF-539 CNS): 6.4 µM
- TGI (SF-539 CNS): 13.9 µM
- GI50 (DU-145 prostate): 6.76 µM
- TGI (DU-145 prostate): 13.9 µM
- GI50 (OVCAR-3 ovarian): 2.29 µM
- TGI (OVCAR-3 ovarian): 8.38 µM
- GI50 (HCT-15 colon): 5.84 µM
- TGI (HCT-15 colon): 13.1 µM
- GI50 (PC-3 prostate): 4 µM
- TGI (PC-3 prostate): 11.7 µM

Compound: CSC1=N/C(=C\c2ccc(C)cc2)C(=O)N1CN1CCCCC1
- TGI (MDA-N): > 100 µM
- TGI (SNB-19 CNS): > 100 µM
- TGI (HT29 colon): > 100 µM
- TGI (DU-145 prostate): > 100 µM
- TGI (SK-OV-3 ovarian): > 100 µM
- TGI (OVCAR-3 ovarian): > 100 µM
- TGI (HCT-15 colon): > 100 µM
- TGI (PC-3 prostate): > 100 µM
